How the values were obtained:
[1] = target: S. aureus ATCC 29213 FabI (Staphylococcus aureus (strain MRSA252), UniProt Q6GI75); experiment: Staphylococcus aureus FabI enzyme inhibition assay; type: biochemical; conditions: 30 minutes at room temperature, pH 6.5
Experimental: D.1 FabI Enzyme Inhibition: Staphylococcus aureus FabI Enzyme Inhibition Assay
FabI enzyme inhibition assays were carried out in half-area, 384-well microtitre plates. Compounds were evaluated in 40-μl assay mixtures containing 100 mM NaADA, pH 6.5 (ADA=N-[2-acetamido]-2iminodiacetic acid), 250 μM crotonoyl-CoA, 625 μM NADH and 50 μg/ml S. aureus ATCC 29213 FabI Inhibitors were typically varied over the range of 50 to 0.39 μM. The reaction mixtures were incubated for 30 minutes at room temperature and the reaction was stopped by adding 200 mM Tris buffer (pH 9.0) to create a pH-shift. The consumption of NADH was monitored by measuring the change in absorbance at […]. By comparing sample readings to those of negative (absence of compound) and positive (absence of enzyme) controls, the percent inhibition of enzymatic activity of the compounds was determined A best-fit curve is fitted by a minimum of squares method. From this an IC50-value (expressed in μg/ml), resulting in 50% inhibition of enzymatic activity, was obtained.

Human HelaM cells = experiment: Cytotoxicity MTT assay (TOX HELAM 222.125); type: cell-based; conditions: 72 hours
Experimental: Cytotoxicity of the compounds was evaluated using the MTT assay. Human HelaM cells grown in 96-well plates were exposed to serial dilutions of the tested compounds (final volume of 0.2 ml) and incubated for 72 hours at 37° C. and 5% CO2 Inhibitors are typically varied over the range of 25 to 0.8 μM. The final DMSO concentration in the assay is 0.5%. MTT (3-(4,5-Dimethylthiazol-2-yl)-2,5-diphenyltetrazolium bromide, a tetrazole) was added and reduced to purple formazan only in living cells. Solubilization of the formazan crystals was achieved by adding 100 μl 2-propanol. Cell viability was determined by measuring the absorbance of the reduced formazan, giving a purple color, at 540 nm and 690 nm. The absorbance measured at 690 nm was automatically subtracted from the absorbance at 540 nm, to eliminate the effects of non-specific absorption. The percent cytotoxicity achieved by the compounds was calculated according to standard methods. Cytotoxicity is reported as CC50, the concentration that causes a 50% reduction in cell viability.
The results are depicted in the table D2 below (TOX HELAM).

S. aureus = experiment: Antibacterial susceptibility testing, IC90 with 10% human serum (STA + 10% HS 361.169); type: cell-based, Staphylococcus aureus; conditions: S. aureus with 10% human serum
Experimental: (§1) The following bacteria were used: Staphylococcus aureus ATCC 29213, methicillin-resistant Staphylococcus aureus (MRSA) ATCC 700788 and Escherichia coli ATCC 35218. The bacteria used in this study were grown overnight in flasks containing 100 ml Mueller-Hinton broth (Difco cat. nr. 0757-17) in sterile de-ionized water, with shaking, at 37° C. Stocks were store at −70° C. until use.
(§2) Bacteria were incubated on a tryptic soy agar plate containing 5% sheep blood (Becton Dickinson cat. nr. 254053) for 18-24 hours at 35° C. in aerobic conditions (first passage). For the second passage, fresh Mueller-Hinton broth is inoculated with 5-10 colonies and grown overnight at 35° C. until turbidity (reaching log-phase) in aerobic conditions is reached. The bacterial suspension is then adjusted to 0.5 McFarland density and further diluted 1:100 in Mueller Hinton broth medium. This is used as inoculum.
(§3) MIC assays were performed by the broth microdilution method in a 96-well format (flat-bottom microtitre plates) with a final volume of 0.1 ml Mueller Hinton broth containing two-fold serial dilutions of compounds and inoculated with 5×10^5 CFU/ml of bacteria (standard inoculum size according to CLSI guidelines). Inhibitors are typically varied over the range of 63 to 0.49 μM. The final DMSO concentration in the assay was 1.25% (maximum tolerable DMSO concentration=6%). In the assays where the effect of human serum on the activity of the compounds against S. aureus was tested, human serum was added at a final concentration of 10%. The plates were incubated at 35° C. for 16-20 hours. At the end of incubation the bacterial growth was quantified fluorometrically. For this, resazurin was added to all wells and the plates were re-incubated. The incubation time is dependent on the type of bacteria. A change in color from blue to pink indicated the growth of bacteria. The fluorescence was read in computer-controlled fluorometer (Fluoroskan Ascent FL, Labsystems) at an excitation wavelength 540 nm and an emission wavelength of 590 nm. The % growth inhibition achieved by the compounds was calculated according to standard methods. The IC90 (expressed in μg/ml) was defined as the 90% inhibitory concentration for bacterial growth. A panel of reference compounds were simultaneously tested for QC approval.
The results are depicted in the table D2 below (STA+10% HS).

[2] = system: Staphylococcus aureus ATCC 29213; experiment: Antibacterial susceptibility testing, IC90 determination (STA 361.159); type: cell-based; conditions: STA ATCC 29213; 90% inhibitory concentration for bacterial growth
Experimental: D.2 In Vitro Method for Testing Compounds for Antibacterial Activity Against Various Bacterial Strains Preparation of Bacterial Suspensions for Susceptibility Testing
as §1, §2
Antibacterial Susceptibility Testing: IC90 Determination
as §3

Row | Compound | FabI IC50 [1] [µg/mL] | TOX HELAM (222.125) CC50 (Human HelaM cells) [µg/mL] | STA + 10% HS (361.169) IC90 (S. aureus) [µg/mL] | STA (361.159) IC90 [2] [µg/mL]
1 | O=C1CCc2cc(/C=C/C(=O)N3CCC(Cn4cnnc4)CC3)cnc2N1 [compound 38] | >7.31 | – | – | –
2 | O=C1CCc2cc(/C=C/C(=O)N3CCC(CC4CCCS4)CC3)cnc2N1 (centres unmarked) [compound 36] | 0.61 | >9.684 | 11.38 | 8.43
3 | O=C1CCc2cc(/C=C/C(=O)N3CCC(O)(c4ccc(Cl)cc4)CC3)cnc2N1 [compound 11] | 0.80 | – | – | –
4 | O=C1CCc2cc(/C=C/C(=O)N3CC=C(c4ccco4)CC3)cnc2N1 [compound 9] | 0.34 | >8.776 | 2.65 | 2.91
5 | O=C1CCc2cc(/C=C/C(=O)N3CCC(c4ccccc4)CC3)cnc2N1 [compound 4] | 0.29 | >9.079 | 4.60 | 4.99
6 | O=C1CCc2cc(/C=C/C(=O)N3CCC(CCOc4ccccc4)CC3)cnc2N1 [compound 29] | 1.00 | – | – | –
7 | O=C1CCc2cc(/C=C/C(=O)N3CC=C(c4ccc5c(c4)OCO5)CC3)cnc2N1 [compound 8] | 0.53 | – | – | –
8 | COc1cccc(C2=CCN(C(=O)/C=C/c3cnc4c(c3)CCC(=O)N4)CC2)c1 [compound 22] | 0.93 | >9.783 | >24.5733 | 21.16
9 | O=C1CCc2cc(/C=C/C(=O)N3CCC(c4cccc(O)c4)CC3)cnc2N1 [compound 5] | 0.35 | >9.481 | 11.14 | 10.52
10 | O=C1CCc2cc(/C=C/C(=O)N3CCC(Cn4cncn4)CC3)cnc2N1 [compound 40] | 1.43 | – | – | –
11 | O=C1CCc2cc(/C=C/C(=O)N3CC=C(c4ccccc4)CC3)cnc2N1 [compound 7] | 0.41 | >9.028 | 2.54 | 2.07
12 | COc1ccccc1C1=CCCN(C(=O)/C=C/c2cnc3c(c2)CCC(=O)N3)C1 [compound 21] | 0.80 | – | – | –
13 | O=C1CCc2cc(/C=C/C(=O)N3CCC(Cc4coc5cc(F)ccc45)CC3)cnc2N1 [compound 31] | 0.79 | – | – | –
14 | O=C1CCc2cc(/C=C/C(=O)N3CCc4ccccc4C3)cnc2N1 [compound 3] | 0.48 | >8.374 | 10.79 | 8.67
15 | O=C1CCc2cc(/C=C/C(=O)N3CC=CCC3)cnc2N1 [compound 15] | 3.57 | – | – | –
16 | O=C1CCc2cc(/C=C/C(=O)N3CC=C(c4ccccc4Cl)CC3)cnc2N1 [compound 16] | 0.58 | 8.04 | 8.52 | 3.31
17 | Cc1ccc(-c2ccccc2)n1CC1CCN(C(=O)/C=C/c2cnc3c(c2)CCC(=O)N3)CC1 [compound 42] | 10.18 | – | – | –
18 | O=C1CCc2cc(/C=C/C(=O)N3CC=C(c4cc5ccccc5o4)CC3)cnc2N1 [compound 17] | 1.91 | – | – | –

Row | Compound | FabI IC50 [1] [µg/mL] | TOX HELAM (222.125) CC50 (Human HelaM cells) [µg/mL] | STA + 10% HS (361.169) IC90 (S. aureus) [µg/mL] | STA (361.159) IC90 [2] [µg/mL]
19 | CC1CN(C(=O)/C=C/c2cnc3c(c2)CCC(=O)N3)CC=C1c1ccccc1 (centres unmarked) [compound 27] | 0.57 | >9.381 | 21.99 | 6.13
20 | O=C1CCc2cc(/C=C/C(=O)N3CCCC(Oc4ccccc4)C3)cnc2N1 (centres unmarked) [compound 1] | 3.52 | – | – | –
21 | O=C1CCc2cc(/C=C/C(=O)N3CCC(COc4ccc(F)cc4)CC3)cnc2N1 [compound 34] | 0.47 | >10.2852 | 12.51 | 9.94
22 | COc1ccncc1C1=CCN(C(=O)/C=C/c2cnc3c(c2)CCC(=O)N3)CC1 [compound 20] | 0.78 | >9.808 | 16.85 | 13.23
23 | O=C1CCc2cc(/C=C/C(=O)N3CCC(CCOc4ccc(F)cc4)CC3)cnc2N1 [compound 30] | 1.34 | – | – | –
24 | COc1ccccc1C1CCN(C(=O)/C=C/c2cnc3c(c2)CCC(=O)N3)CC1 [compound 13] | 0.53 | – | – | –
25 | O=C1CCc2cc(/C=C/C(=O)N3CCC(C(=O)c4ccccc4)CC3)cnc2N1 [compound 6] | 1.74 | – | – | –
26 | O=C1CCc2cc(/C=C/C(=O)N3CC=C(c4cccnc4)CC3)cnc2N1 [compound 18] | 0.67 | – | – | –
27 | O=C1CCc2cc(/C=C/C(=O)N3CCC(Oc4ccccc4)CC3)cnc2N1 [compound 28] | 0.93 | – | – | –
28 | O=C1CCc2cc(/C=C/C(=O)N3CCC(Cn4ccc5ccccc54)CC3)cnc2N1 [compound 39] | 2.74 | – | – | –
29 | O=C1CCc2cc(/C=C/C(=O)N3CC=C(c4cccc(C(F)(F)F)c4)CC3)cnc2N1 [compound 19] | 1.12 | – | – | –
30 | O=C1CCc2cc(/C=C/C(=O)N3CCCCC3)cnc2N1 [compound 26] | 2.73 | – | – | –
31 | O=C1CCc2cc(/C=C/C(=O)N3CCC(Cc4ccc5ccccc5n4)CC3)cnc2N1 [compound 41] | 3.39 | – | – | –
32 | O=C1CCc2cc(/C=C/C(=O)N3CCN(c4ccccc4)CC3)cnc2N1 [compound 25] | 1.48 | – | – | –
33 | COc1ccc(C2=CCN(C(=O)/C=C/c3cnc4c(c3)CCC(=O)N4)CC2)cc1 [compound 23] | 0.85 | – | – | –
34 | O=C1CCc2cc(/C=C/C(=O)N3CCC(Cc4nc5ccccc5s4)CC3)cnc2N1 [compound 32] | 1.72 | – | – | –
35 | O=C1CCc2cc(/C=C/C(=O)N3CCN(Cc4ccccc4)CC3)cnc2N1 [compound 24] | 7.17 | – | – | –

Reference: patent publication US9598407B2, “Antibacterial piperidinyl substituted 3,4-dihydro-1H-[1,8]naphthyridinones” (JANSSEN SCIENCES IRELAND UC, priority 2011, dated 2017)
